Results published in patent publication US20070135515A1, “Method for producing sorbicillactone a” (priority 2004, published 2007).

Tested on: L5178Y mouse lymphoma cells (ATCC CRL 1722)
Assay: Genotoxicity: Comet-Assay (alkaline electrophoresis, extent tail moment)
Type: cell-based
Conditions: 1, 3, and 10 μg/mL
Method: Material: “Normal Melting Agarose” (NMA, Cat.-No. 840041) and “Low Melting Agarose” (LMA, Kat.-Nr. 870081) were obtained from Biozym (Hamburg, Germany), Triton x-100 from Fluka (Buchs S G, Schwitzerland), RPMI1640-medium, DMSO, and EDTA from Sigma-Aldrich (Taufkirchen, Germany), NaCl and Tris from Roth (Karlsruhe, Germany) and foetal calf serum (FCS) from Gibco (Karlsruhe, Germany). Sorbicillactone A of the batch: 2208/2a was used.
Cells: The genotoxicity of sorbicillactone A was tested on L5178Y mouse lymphoma cells (ATCC CRL 1722). As described (Müller et al., 1979, Cancer Res. 39:1102-1107), the cells were cultured in RPMI1640-medium with 10 mM Hepes, which was supplemented with 10% foetal calf serum (FCS). As a concentration of the inoculum, 10^4 cells/mL was chosen. The cells were incubated with 1, 3, and 10 μg/mL sorbicillactone A for 4 and 24 hours. After the incubation, the cells were examined with the “Comet-Assay”.
Alkaline electrophoresis: The object slides (Superfrost) were cleaned with acetone. 1.0-percent “Normal Melting Agarose” (NMA) in 1×PBS was cooked, and subsequently about 600 μl of agarose were applied onto an object slide. The object slides were shortly (˜5 min) dried at 50° C., and stored over night at room temperature. Then, the 0.7-percent “Low Melting Agarose” (LMA) was prepared in distilled water. The second layer on the object slides consisted of 200 μl LMA. […]

SMILES: C/C=C/C=C/C(O)=C1/C(=O)C(C)=C(O)[C@@]2(C)OC(=O)[C@@](C)(NC(=O)/C=C/C(=O)O)[C@@H]12 [sorbicillactone A]
- change of the extent tail moment (DNA-strand scissions) (4 hours incubation, FIG. 2A): did not exhibit significant changes
- change of the extent tail moment (DNA-strand scissions) (24 hours incubation, FIG. 2B): no significant changes
